From paper PMC6274715, “Discovery of Novel Druggable Sites on Zika Virus NS3 Helicase Using X-ray Crystallography-Based Fragment Screening” (International Journal of Molecular Sciences, 2018)

Biological target: T1, ZIKV NS3-Hel (Zika virus NS3 helicase) (Zika virus ZIKV/H. sapiens/FrenchPolynesia/10087PF/2013, UniProt A0A024B7W1)
T1 construct: helicase domain, residues 171-617 of NS3, cut from the genome polyprotein; N-terminal 6xHis-SUMO tag cleaved off
Assay: STD NMR titration; crystal structure also solved
Type: binding

T1 sequence (A0A024B7W1 1673-2119): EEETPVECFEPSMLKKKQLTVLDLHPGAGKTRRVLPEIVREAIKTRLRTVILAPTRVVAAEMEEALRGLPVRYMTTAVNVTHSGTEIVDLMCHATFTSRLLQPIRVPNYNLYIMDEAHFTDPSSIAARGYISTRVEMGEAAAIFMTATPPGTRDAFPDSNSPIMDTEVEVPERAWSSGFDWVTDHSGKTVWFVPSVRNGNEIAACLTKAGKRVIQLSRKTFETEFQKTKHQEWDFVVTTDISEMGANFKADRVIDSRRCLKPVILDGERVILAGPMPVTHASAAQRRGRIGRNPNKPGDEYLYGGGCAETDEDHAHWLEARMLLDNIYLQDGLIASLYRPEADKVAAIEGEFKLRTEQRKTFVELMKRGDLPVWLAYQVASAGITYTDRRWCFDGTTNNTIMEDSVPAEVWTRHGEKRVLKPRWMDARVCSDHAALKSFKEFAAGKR

How did the Kd turn out when `Nc1nc(N)c2[nH]cnc2n1` [compound 1, 2,6-di-aminopurine] was run?
Its Kd is 2.8 ± 0.4 mM.

How did the Kd turn out when `NC(=O)c1ccc(Cl)cc1Cl` [compound 4, 2,4-dicholorobenzamide] was run?
The Kd was 5.1 ± 1.4 mM.
